# Measured values taken from patent US8815935B2, “Inhibitors of protein prenyltransferases” (The Regents of the University of California, priority 2008, dated 2014).
# Target: T1, GGTase-I (Rattus norvegicus, UniProt P53610+Q04631)
# T1 construct: purchased JENA BIOSCIENCE
# Experiment: In vitro GGTase-I enzyme assay (IC50, kinetics)
# Format: biochemical
# Conditions: Tables 3, 5, 7; read-out: In vitro (enzyme assay) IC50, GGTase I
# Procedure: The GGTase-I assay was carried out using RhoA as a substrate protein, GGTase-I (JENA Bioscience) and [3H]geranylgeranyl pyrophosphate. Incubation was for 30 min at 37° C. GGTase-II (or RabGGTase) assay was carried out using YPTI as a substrate protein, GGTase-II (Calbiochem, San Diego, Calif.) plus REP1 (Calbiochem) and [3H]geranylgeranyl pyrophosphate. Incubation was for 30 min at 37° C. FIGS. 20D-20F show the three dimensional structure of GGTase I (D), FTsse (E) and GGTase II (F) which can be obtained from X-ray diffraction studies of protein crystals.
# GGTase-I and FTase activities were determined by following the incorporation of radiolabeled isoprenoid [^3H]-geranylgeranyl or [^3H]-farnesyl into substrate proteins. FTase or GGTase-I (50 nM) were used to initiate reactions containing 0.4 μM of [^3H]-FPP or 0.5 μM of [^3H]-GGPP and 2 μM of MBP-tagged substrates (K-Ras4B for FTase; RhoA for GGTase-I) in 20 μl of buffer {50 mM Tris-HCl (pH 7.5), 10 mM MgCl2, […] and 5 mM DTT}. Inhibitors were added at the indicated concentrations. The final DMSO concentration was 2.5% for all samples.
# Reactions were carried out for 10 min at 30° C. The reaction mixture was spotted onto a filter paper, treated with 10% trichloroacetic acid (TCA) followed by ethanol and acetone washing. The filter was counted using a scintillation counter. Kinetic assays in which the GGPP concentration was varied employed fixed concentrations of GGTase-I and RhoA, and reactions were carried out for 5 min. Similarly, fixed concentrations of GGTase-I and GGPP were used when the amount of RhoA was varied.
row,IC50 [µM],SMILES
1,1.6,Cc1ccccc1S(=O)(=O)N1[C@@H](c2ccc(Cl)cc2)C(C(N)=O)=C[C@H]1C(C)(C)C
2,1.3,Cc1ccccc1S(=O)(=O)N1[C@@H](c2ccc(Cl)cc2)C(C(=O)NO)=C[C@H]1C(C)(C)C
3,2.2,Cc1ccccc1S(=O)(=O)N1[C@@H](c2ccc(Cl)cc2)C(CO)=C[C@H]1C(C)(C)C
4,> 50,COC(=O)[C@H](Cc1ccccc1)NC(=O)C1=C[C@@H](C(C)(C)C)N(S(=O)(=O)c2ccccc2C)[C@H]1c1ccc(Cl)cc1 [P61-A04]
5,> 50,Cc1ccccc1S(=O)(=O)N1[C@@H](c2ccc(Cl)cc2)C(C(=O)N[C@@H](Cc2ccccc2)C(N)=O)=C[C@H]1C(C)CC(C)(C)C (stereo partly drawn) [P61-C04]
6,> 50,CC(C)C[C@H](NC(=O)C1=CC[C@@H](c2cccc(Cl)c2)N(S(=O)(=O)c2ccc(Br)cc2)C1c1cccc(Br)c1)C(N)=O (stereo partly drawn) [P61-C09]

# Same assay, conditions: Tables 8-15; no unit printed there (Table 7 head: μM unless otherwise specified); read-out: In vitro (GGTase I IC50)
row,IC50 [µM],SMILES
1,> 50,COC(=O)[C@H](Cc1ccccc1)NC(=O)C1=C[C@@H](C(C)(C)C)N(S(=O)(=O)c2ccccc2C)[C@H]1c1ccc(Cl)cc1 [P61-A04]
2,> 50,Cc1ccccc1S(=O)(=O)N1[C@@H](c2ccc(Cl)cc2)C(C(=O)N[C@@H](Cc2ccccc2)C(N)=O)=C[C@H]1C(C)CC(C)(C)C (stereo partly drawn) [P61-C04]
3,> 50,CC(C)C[C@H](NC(=O)C1=CC[C@@H](c2cccc(Cl)c2)N(S(=O)(=O)c2ccc(Br)cc2)C1c1cccc(Br)c1)C(N)=O (stereo partly drawn) [P61-C09]

# Tested on: Jurkat cells
# Experiment: Jurkat cell growth inhibition
# Format: cell-based, human
# Conditions: Homo sapiens, Jurkat, Tables 4, 6, 7; read-out: Jurkat cell GI50
# Procedure: In Table 4 in cell GI50 values for the growth inhibition of Jurkat cells are reported. The GI50 value is the concentration of a test compound needed to produce 50% growth inhibition in the cell type listed. In Table 4 the isolated yield of each synthetic step for the synthesis of corresponding compounds are also reported.
# (§1) Panc-1 cells (Pancreatic cancer cell line) and Jurkat cells (T-cell leukemia) were treated with 12.5 μM of P5-H6 or 12.5 μM of mP5-H6a for 72 hours. The cell number was counted as described in Example 5.
# (§2) Cell viability was determined by Cell Counting Kit-8 (CCK-8, Dojindo, Kumamoto, Japan) as described previously (31). Cell viability was calculated relative to the DMSO control. Cell cycle profile was analyzed by flow cytometry as described previously (32).
row,GI50 [µM],SMILES
1,11,Cc1ccccc1S(=O)(=O)N1[C@@H](c2ccc(Cl)cc2)C(C(N)=O)=C[C@H]1C(C)(C)C
2,4.02,Cc1ccccc1S(=O)(=O)N1[C@@H](c2ccc(Cl)cc2)C(C(=O)NO)=C[C@H]1C(C)(C)C
3,5.8,Cc1ccccc1S(=O)(=O)N1[C@@H](c2ccc(Cl)cc2)C(CO)=C[C@H]1C(C)(C)C
4,19,COC(=O)[C@H](Cc1ccccc1)NC(=O)C1=C[C@@H](C(C)(C)C)N(S(=O)(=O)c2ccccc2C)[C@H]1c1ccc(Cl)cc1 [P61-A04]

# Same assay, conditions: Homo sapiens, Jurkat, Tables 8-15; no unit printed there; read-out: Jurkat GI50
row,GI50 [µM],SMILES
1,19,COC(=O)[C@H](Cc1ccccc1)NC(=O)C1=C[C@@H](C(C)(C)C)N(S(=O)(=O)c2ccccc2C)[C@H]1c1ccc(Cl)cc1 [P61-A04]

# Same assay, conditions: Tables 4, 6, 7; read-out: Jurkat cell GI50
row,GI50 [µM],SMILES
1,6.4,Cc1ccccc1S(=O)(=O)N1[C@@H](c2ccc(Cl)cc2)C(C(=O)N[C@@H](Cc2ccccc2)C(N)=O)=C[C@H]1C(C)CC(C)(C)C (stereo partly drawn) [P61-C04]
2,6.38,CC(C)C[C@H](NC(=O)C1=CC[C@@H](c2cccc(Cl)c2)N(S(=O)(=O)c2ccc(Br)cc2)C1c1cccc(Br)c1)C(N)=O (stereo partly drawn) [P61-C09]

# Same assay, conditions: Tables 8-15; no unit printed there; listed as P61C4; read-out: Jurkat GI50
row,GI50 [µM],SMILES
1,6.4,Cc1ccccc1S(=O)(=O)N1[C@@H](c2ccc(Cl)cc2)C(C(=O)N[C@@H](Cc2ccccc2)C(N)=O)=C[C@H]1C(C)CC(C)(C)C (stereo partly drawn) [P61-C04]

# Same assay, conditions: Tables 8-15; no unit printed there; listed as P61C9; read-out: Jurkat GI50
row,GI50 [µM],SMILES
1,6.38,CC(C)C[C@H](NC(=O)C1=CC[C@@H](c2cccc(Cl)c2)N(S(=O)(=O)c2ccc(Br)cc2)C1c1cccc(Br)c1)C(N)=O (stereo partly drawn) [P61-C09]

# Tested on: K562 cells
# Experiment: K562 cell growth inhibition
# Format: cell-based, human
# Conditions: Homo sapiens, K562, Table 7
# Procedure: K562 cells are a cell line of human erythroleukemia cells. The K562 cells were treated with P3-E5, P5-H6 or GGTI-298 (a known GGTI compound illustrated in FIG. 27) for 72 hours and then cell number was counted using cell counting kit-8 (Dojindo, Gaithersburg, Md.). Cell viability relative to the DMSO control and the known GGTI compound is plotted in FIG. 23.
# as §2
row,GI50 [µM],SMILES
1,4.8,Cc1ccccc1S(=O)(=O)N1[C@@H](c2ccc(Cl)cc2)C(C(N)=O)=C[C@H]1C(C)(C)C
2,10.3,Cc1ccccc1S(=O)(=O)N1[C@@H](c2ccc(Cl)cc2)C(C(=O)NO)=C[C@H]1C(C)(C)C
3,6,Cc1ccccc1S(=O)(=O)N1[C@@H](c2ccc(Cl)cc2)C(CO)=C[C@H]1C(C)(C)C

# Same assay, conditions: Homo sapiens, K562, Tables 8-15; no unit printed there
row,GI50 [µM],SMILES
1,14,COC(=O)[C@H](Cc1ccccc1)NC(=O)C1=C[C@@H](C(C)(C)C)N(S(=O)(=O)c2ccccc2C)[C@H]1c1ccc(Cl)cc1 [P61-A04]

# Same assay, conditions: Tables 8-15; no unit printed there; listed as P61C4
row,GI50 [µM],SMILES
1,5.95,Cc1ccccc1S(=O)(=O)N1[C@@H](c2ccc(Cl)cc2)C(C(=O)N[C@@H](Cc2ccccc2)C(N)=O)=C[C@H]1C(C)CC(C)(C)C (stereo partly drawn) [P61-C04]

# Same assay, conditions: Tables 8-15; no unit printed there; listed as P61C9
row,GI50 [µM],SMILES
1,12.9,CC(C)C[C@H](NC(=O)C1=CC[C@@H](c2cccc(Cl)c2)N(S(=O)(=O)c2ccc(Br)cc2)C1c1cccc(Br)c1)C(N)=O (stereo partly drawn) [P61-C09]

# Tested on: BT474
# Experiment: BT474 cell growth inhibition
# Format: cell-based, human
# Conditions: Tables 8-15; no unit printed there; listed as P61C4
# Procedure: (§3) In FIG. 9-24 in vitro IC50 values for the GGTase I activity are reported. In Tables 7-15 in cell GI50 values for the growth inhibition of a variety of cancer cell lines (e.g., Jurkat, K562, MDA-MB-231, BT474, MCF7, MiaPaCa2, Aspc-1, Panc-1, Capan-2, CFpac-1, and MCF10a) are reported.
# as §2
row,GI50 [µM],SMILES
1,10.1,Cc1ccccc1S(=O)(=O)N1[C@@H](c2ccc(Cl)cc2)C(C(=O)N[C@@H](Cc2ccccc2)C(N)=O)=C[C@H]1C(C)CC(C)(C)C (stereo partly drawn) [P61-C04]

# Tested on: MCF7
# Experiment: MCF7 cell growth inhibition
# Format: cell-based, human
# Conditions: Homo sapiens, MCF7, Table 7
# Procedure: as §3, §2
row,GI50 [µM],SMILES
1,2.52,Cc1ccccc1S(=O)(=O)N1[C@@H](c2ccc(Cl)cc2)C(C(=O)NO)=C[C@H]1C(C)(C)C

# Same assay, conditions: Tables 8-15; no unit printed there; listed as P61C4
row,GI50 [µM],SMILES
1,4.71,Cc1ccccc1S(=O)(=O)N1[C@@H](c2ccc(Cl)cc2)C(C(=O)N[C@@H](Cc2ccccc2)C(N)=O)=C[C@H]1C(C)CC(C)(C)C (stereo partly drawn) [P61-C04]

# Tested on: MCF10a
# Experiment: MCF10a cell growth inhibition
# Format: cell-based
# Conditions: Homo sapiens, MCF-10A, Table 7
# Text: as §3
row,SMILES,GI50 [µM]
1,Cc1ccccc1S(=O)(=O)N1[C@@H](c2ccc(Cl)cc2)C(C(=O)NO)=C[C@H]1C(C)(C)C,11.4

# Same assay, conditions: Tables 8-15; no unit printed there; listed as P61C4
row,SMILES,GI50 [µM]
1,Cc1ccccc1S(=O)(=O)N1[C@@H](c2ccc(Cl)cc2)C(C(=O)N[C@@H](Cc2ccccc2)C(N)=O)=C[C@H]1C(C)CC(C)(C)C (stereo partly drawn) [P61-C04],11.3

# Tested on: MiaPaCa2
# Experiment: MiaPaCa2 cell growth inhibition
# Format: cell-based, human
# Conditions: Tables 8-15; no unit printed there; listed as P61C4
# Procedure: as §3, §2
row,GI50 [µM],SMILES
1,6.7,Cc1ccccc1S(=O)(=O)N1[C@@H](c2ccc(Cl)cc2)C(C(=O)N[C@@H](Cc2ccccc2)C(N)=O)=C[C@H]1C(C)CC(C)(C)C (stereo partly drawn) [P61-C04]

# Tested on: Aspc-1
# Experiment: Aspc-1 cell growth inhibition
# Format: cell-based, human
# Conditions: Tables 8-15; no unit printed there; listed as P61C4
# Procedure: as §3, §2
row,GI50 [µM],SMILES
1,8.61,Cc1ccccc1S(=O)(=O)N1[C@@H](c2ccc(Cl)cc2)C(C(=O)N[C@@H](Cc2ccccc2)C(N)=O)=C[C@H]1C(C)CC(C)(C)C (stereo partly drawn) [P61-C04]

# Tested on: Panc-1
# Experiment: Panc-1 cell growth inhibition
# Format: cell-based, human
# Conditions: Tables 8-15; no unit printed there; listed as P61C4
# Procedure: as §3, §1, §2
row,GI50 [µM],SMILES
1,8.6,Cc1ccccc1S(=O)(=O)N1[C@@H](c2ccc(Cl)cc2)C(C(=O)N[C@@H](Cc2ccccc2)C(N)=O)=C[C@H]1C(C)CC(C)(C)C (stereo partly drawn) [P61-C04]

# Tested on: Capan-2
# Experiment: Capan-2 cell growth inhibition
# Format: cell-based, human
# Conditions: Tables 8-15; no unit printed there; listed as P61C4
# Procedure: as §3, §2
row,SMILES,GI50 [µM]
1,Cc1ccccc1S(=O)(=O)N1[C@@H](c2ccc(Cl)cc2)C(C(=O)N[C@@H](Cc2ccccc2)C(N)=O)=C[C@H]1C(C)CC(C)(C)C (stereo partly drawn) [P61-C04],7.5
